Target: hVR1 (Homo sapiens (Human), UniProt Q8NER1)
Test: FLIPR Ca2+ influx assay on CHO K1 cells transfected with the VR1 gene, capsaicin stimulus (method II)
Type: cell-based
Design: key to Ki (human being) Cap: result in words (NE / AG): AG=agonist; pAG=partial agonist; NE=no effect
Conditions: CHO-K1, read-out: Ki (human being) Cap column: inhibition (as a percentage) @ 5 μM, capsaicin, inhibition determined at 5 μM
Description: In the process, the Ca^2+ influx is quantified in the FLIPR assay with the aid of a Ca^2+-sensitive dye (type Fluo-4, Molecular Probes Europe BV, Leiden, the Netherlands) in a fluorescent imaging plate reader (FLIPR, Molecular Devices, Sunnyvale, USA), as described hereinafter.
The agonistic or antagonistic effect of the substances to be tested on the vanilloid receptor 1 (VR1) can also be determined using the following assay. In this assay, the influx of Ca^2+ through the channel is quantified with the aid of a Ca^2+-sensitive dye (type Fluo-4, Molecular Probes Europe BV, Leiden, the Netherlands) in a fluorescent imaging plate reader (FLIPR, Molecular Devices, Sunnyvale, USA).
Chinese hamster ovary cells (CHO K1 cells, European Collection of Cell Cultures (ECACC) United Kingdom) are stably transfected with the VR1 gene. For functional testing, these cells are plated out on poly-D-lysine-coated black 96-well plates having a clear base (BD Biosciences, Heidelberg, Germany) at a density of 25,000 cells/well. The cells are incubated overnight at 37° C. and 5% CO2 in a culture medium (Ham's F12 nutrient mixture, 10% by volume of FCS (foetal calf serum), 18 μg/ml of L-proline). The next day the cells are incubated with Fluo-4 (Fluo-4 2 μM, 0.01% by volume of Pluronic F127, Molecular Probes in HBSS (Hank's buffered saline solution), Gibco Invitrogen GmbH, Karlsruhe, Germany) for 30 minutes at 37° C. Subsequently, the plates are washed three times with HBSS buffer and after further incubation for 15 minutes at RT used for Ca^2+ measurement in a FLIPR assay. The Ca^2+-dependent fluorescence is measured before and after the addition of the substances to be tested (λex wavelength=488 nm, λem=540 nm). Quantification is carried out by measuring the highest fluorescence intensity (FC, fluorescence counts) over time.
The FLIPR protocol consists of 2 substance additions. First the compounds to be tested (10 μM) are pipetted onto the cells and the Ca^2+ influx is compared with the control (capsaicin 10 μM) (% activation based on the Ca^2+ signal after the addition of 10 μM of capsaicin). After 5 minutes' incubation, 100 nM of capsaicin are applied and the Ca^2+ influx is also determined.
Desensitising agonists and antagonists led to suppression of the Ca^2+ influx.
Starting from the percentage displacement caused by different concentrations of the compounds to be tested of general formula I, IC50 inhibitory concentrations which cause a 50-percent displacement of capsaicin were calculated. Ki values for the test substances were obtained by conversion by means of the Cheng-Prusoff equation (Cheng, Prusoff; Biochem. Pharmacol. 22, 3099-3108, 1973).

Chain of hVR1 (Q8NER1 whole entry): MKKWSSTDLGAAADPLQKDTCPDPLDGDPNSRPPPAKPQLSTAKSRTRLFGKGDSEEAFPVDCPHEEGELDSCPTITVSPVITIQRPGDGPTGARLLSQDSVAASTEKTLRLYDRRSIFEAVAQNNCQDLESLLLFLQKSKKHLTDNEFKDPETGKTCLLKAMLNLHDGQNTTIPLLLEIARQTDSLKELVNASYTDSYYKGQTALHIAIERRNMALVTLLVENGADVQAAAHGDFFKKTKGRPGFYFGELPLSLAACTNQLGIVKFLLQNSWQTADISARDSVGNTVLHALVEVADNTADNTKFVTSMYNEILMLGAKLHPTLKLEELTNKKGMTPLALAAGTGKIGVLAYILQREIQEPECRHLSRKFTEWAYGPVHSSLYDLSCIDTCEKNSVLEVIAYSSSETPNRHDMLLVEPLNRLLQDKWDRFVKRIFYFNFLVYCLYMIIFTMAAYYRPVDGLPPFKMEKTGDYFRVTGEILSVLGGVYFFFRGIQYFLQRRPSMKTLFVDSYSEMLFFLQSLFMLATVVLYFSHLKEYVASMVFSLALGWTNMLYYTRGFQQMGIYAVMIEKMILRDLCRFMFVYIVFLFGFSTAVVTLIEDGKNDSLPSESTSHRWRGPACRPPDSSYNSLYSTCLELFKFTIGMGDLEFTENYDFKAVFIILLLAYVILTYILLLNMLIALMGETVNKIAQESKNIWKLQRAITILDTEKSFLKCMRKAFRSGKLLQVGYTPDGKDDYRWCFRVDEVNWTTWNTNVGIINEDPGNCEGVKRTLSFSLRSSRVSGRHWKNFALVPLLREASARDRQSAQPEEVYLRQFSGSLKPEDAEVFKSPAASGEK

Row | SMILES | inhibition at 5 µM [%]
1 | COc1ccc(Cn2nc(C(F)(F)F)cc2CNC(=O)Cc2cccc(F)c2)cc1 [Example 132, 2-(3-fluorophenyl)-N-((1-(4-methoxybenzyl)-3-(trifluoromethyl)-1H-pyrazol-5-yl)methyl)acetamide] | 34
2 | CC(C)(C)c1cc(CNC(=O)Cc2cccc(F)c2)n(NCC(F)(F)F)n1 [Example 133, N-((3-tert-butyl-1-(2,2,2-trifluoroethylamino)-1H-pyrazol-5-yl)methyl)-2-(3-fluorophenyl)acetamide] | 12

Further lines, results first:

Row | inhibition at 5 µM [%] | SMILES
3 | 44 | CN(C(=O)NCc1cc(C(F)(F)F)nn1-c1cccc(Cl)c1)c1cccc(F)c1 [Example 123, 3-((1-(3-chlorophenyl)-3-(trifluoromethyl)-1H-pyrazol-5-yl)methyl)-1-(3-fluorophenyl)-1-methylurea]
4 | 58 | CCCCCn1nc(C(F)(F)F)cc1CNC(=O)Cc1cccc(F)c1 [Example 131, 2-(3-fluorophenyl)-N-((1-pentyl-3-(trifluoromethyl)-1H-pyrazol-5-yl)methyl)acetamide]

Same assay, conditions: CHO-K1, read-out: Ki (human being) inhibition (as a percentage) @ 1 μM, capsaicin, inhibition determined at 1 μM

Row | inhibition at 1 µM [%] | SMILES
5 | 56 | CC(C(=O)NCc1cc(C(F)(F)F)nn1-c1cccc(Cl)c1)c1ccc(C(=O)Nc2ccccc2)cc1 (stereo not drawn) [Example 143, 4-(1-((1-(3-chlorophenyl)-3-(trifluoromethyl)-1H-pyrazol-5-yl)methylamino)-1-oxopropan-2-yl)-N-phenylbenzamide]
6 | 6 | O=C(NCc1cc(C(F)(F)F)nn1-c1cccc(Cl)c1)C1(c2cccc(F)c2)CCCC1 [Example 120, N-((1-(3-chlorophenyl)-3-(trifluoromethyl)-1H-pyrazol-5-yl)methyl)-1-(3-fluorophenyl)cyclopentancarboxamide]

Same assay, conditions: capsaicin

Row | SMILES | Ki (human being) Cap: result in words (NE / AG)
7 | CC(C)(C)c1cc(CNC(=O)C2(c3cccc(F)c3)CC2)n(-c2cccc(Cl)c2)n1 [Example 118, N-((3-tert-butyl-1-(3-chlorophenyl)-1H-pyrazol-5-yl)methyl)-1-(3-fluorophenyl)cyclopropancarboxamide] | AG
8 | CC(C)(C)c1cc(CNC(=O)Cc2cccc(F)c2)n(-c2cccc(Cl)c2)n1 [Example 73, N-((3-tert-butyl-1-(3-chlorophenyl)-1H-pyrazol-5-yl)methyl)-2-(3-fluorophenyl)acetamide] | AG

Now from value to compound:

Row | Ki (human being) Cap: result in words (NE / AG) | SMILES
9 | AG | O=C(NCc1cc(C(F)(F)F)nn1-c1cccc(Cl)c1)Nc1ccc(C#CC2CC2)c(F)c1 [Example 139, 1-((1-(3-chlorophenyl)-3-(trifluoromethyl)-1H-pyrazol-5-yl)methyl)-3-(4-(cyclopropylethynyl)-3-fluorophenyl)urea]
10 | AG | CC(C(=O)NCc1cc(C(C)(C)C)nn1-c1cccc(Cl)c1)c1ccc(C2CC2)c(F)c1 (stereo not drawn) [Example 125, N-((3-tert-butyl-1-(3-chlorophenyl)-1H-pyrazol-5-yl)methyl)-2-(4-cyclopropyl-3-fluorophenyl)propanamide]
11 | AG | COCCOCc1ccc(C(C)C(=O)NCc2cc(C(C)(C)C)nn2-c2cccc(Cl)c2)cc1F (stereo not drawn) [Example 142, N-((3-tert-butyl-1-(3-chlorophenyl)-1H-pyrazol-5-yl)methyl)-2-(3-fluoro-4-((2-methoxyethoxy)methyl)phenyl)propanamide]

Same assay, conditions: capsaicin (Cap), read-out: Ki (human being) [nM] Cap

Row | SMILES | Ki [nM]
12 | CC(C(=O)NCc1cc(C(F)(F)F)nn1-c1cccc(Cl)c1)c1ccc(C(=O)Nc2ccc(F)cc2)cc1 (stereo not drawn) [Example 40, 4-(1-((1-(3-chlorophenyl)-3-(trifluoromethyl)-1H-pyrazol-5-yl)methylamino)-1-oxopropan-2-yl)-N-(4-fluorophenyl)benzamide] | 0.8
13 | Cc1c(C(F)(F)F)nn(-c2cccc(Cl)c2)c1CNC(=O)Cc1cccc(F)c1 [Example 130, N-((1-(3-chlorophenyl)-4-methyl-3-(trifluoromethyl)-1H-pyrazol-5-yl)methyl)-2-(3-fluorophenyl)acetamide] | 112
14 | O=C(NCc1cc(C(F)(F)F)nn1-c1cccc(Cl)c1)Nc1ccc(C2CC2)c(F)c1 [Example 126, 1-((1-(3-chlorophenyl)-3-(trifluoromethyl)-1H-pyrazol-5-yl)methyl)-3-(4-cyclopropyl-3-fluorophenyl)urea] | 31.4
15 | CC(C(=O)NCc1cc(C(C)(C)C)nn1-c1ccccn1)c1ccc(CNS(C)(=O)=O)c(F)c1 (stereo not drawn) [Example 127, N-((3-tert-butyl-1-(pyridin-2-yl)-1H-pyrazol-5-yl)methyl)-2-(3-fluoro-4-(methylsulfonamidmethyl)phenyl)propanamide] | 58.1
16 | CC(C(=O)NCc1cc(C(F)(F)F)nn1C1CCCCC1)c1ccc(CNS(C)(=O)=O)c(F)c1 (stereo not drawn) [Example 137, N-((1-cyclohexyl-3-(trifluoromethyl)-1H-pyrazol-5-yl)methyl)-2-(3-fluoro-4-(methylsulfonamidmethyl)phenyl)propanamide] | 65.1
17 | CC(C(=O)NCc1cc(C(F)(F)F)nn1-c1cccc(Cl)c1)c1ccc(C(=O)Nc2ccc(C(F)(F)F)cc2)cc1 (stereo not drawn) [Example 41, 4-(1-((1-(3-chlorophenyl)-3-(trifluoromethyl)-1H-pyrazol-5-yl)methylamino)-1-oxopropan-2-yl)-N-(4-(trifluoromethyl)phenyl)benzamide] | 85
18 | CC(C(=O)NCc1cc(C(F)(F)F)nn1NCc1ccccn1)c1ccc(CNS(C)(=O)=O)c(F)c1 (stereo not drawn) [Example 129, 2-(3-fluoro-4-(methylsulfonamidmethyl)phenyl)-N-((1-(pyridin-2-ylmethylamino)-3-(trifluoromethyl)-1H-pyrazol-5-yl)methyl)propanamide] | 63.6
19 | CC(C(=O)NCc1cc(C(F)(F)F)nn1-c1cccc(Cl)c1)c1cc(F)cc(F)c1 (stereo not drawn) [Example 30, N-((1-(3-chlorophenyl)-3-(trifluoromethyl)-1H-pyrazol-5-yl)methyl)-2-(3,5-difluorophenyl)propanamide] | 6.3

The next lines start with the values.

Row | Ki [nM] | SMILES
20 | 7.2 | CC(C(=O)NCc1cc(C(F)(F)F)nn1-c1cccc(Cl)c1)c1ccc(C(=O)Nc2ccccc2)c(F)c1 (stereo not drawn) [Example 39, 4-(1-((1-(3-chlorophenyl)-3-(trifluoromethyl)-1H-pyrazol-5-yl)methylamino)-1-oxopropan-2-yl)-2-fluoro-N-phenylbenzamide]
21 | 26 | O=C(Cc1cc(F)c(O)c(F)c1)NCc1cc(C(F)(F)F)nn1-c1cccc(Cl)c1 [Example 147, N-((1-(3-chlorophenyl)-3-(trifluoromethyl)-1H-pyrazol-5-yl)methyl)-2-(3,5-difluoro-4-hydroxyphenyl)acetamide]
22 | 17 | COc1c(F)cc(C(C)C(=O)NCc2cc(C(F)(F)F)nn2-c2cccc(Cl)c2)cc1F (stereo not drawn) [Example 47, N-((1-(3-chlorophenyl)-3-(trifluoromethyl)-1H-pyrazol-5-yl)methyl)-2-(3,5-difluoro-4-methoxyphenyl)propanamide]
23 | 4 | CC(C(=O)NCc1cc(C(C)(C)C)nn1-c1cccc(Cl)c1)c1ccc(CNS(C)(=O)=O)c(F)c1 (stereo not drawn) [Example 33, N-((3-tert-butyl-1-(3-chlorophenyl)-1H-pyrazol-5-yl)methyl)-2-(3-fluoro-4-(methylsulphonamidomethyl)phenyl)propanamide]
24 | 107 | O=C(NCc1cc(C(F)(F)F)nn1-c1cccc(Cl)c1)C1(c2cccc(F)c2)CCC1 [Example 119, N-((1-(3-chlorophenyl)-3-(trifluoromethyl)-1H-pyrazol-5-yl)methyl)-1-(3-fluorophenyl)cyclobutancarboxamide]
